In experiment [1] the target is T1, Cannabinoid receptor 2 (Rattus norvegicus, UniProt Q9QZN9).
T1 sequence (Q9QZN9 whole entry): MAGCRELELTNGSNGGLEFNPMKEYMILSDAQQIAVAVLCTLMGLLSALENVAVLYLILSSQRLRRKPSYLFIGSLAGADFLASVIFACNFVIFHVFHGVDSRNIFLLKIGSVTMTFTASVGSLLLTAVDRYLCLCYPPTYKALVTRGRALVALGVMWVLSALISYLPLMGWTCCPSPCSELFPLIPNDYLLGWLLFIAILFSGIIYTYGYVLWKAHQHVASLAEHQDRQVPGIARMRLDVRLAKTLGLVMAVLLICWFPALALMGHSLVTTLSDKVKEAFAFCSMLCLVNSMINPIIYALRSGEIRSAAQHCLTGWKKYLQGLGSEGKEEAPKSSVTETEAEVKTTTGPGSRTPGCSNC
The experiment in a line: Radioligand Binding Assay: HEK293 cells stably expressing rat CB2 receptors were grown until a confluent monolayer was formed. Briefly, the cells were harvested and homogenized in TE buffer (50 mM Tris-HCl, 1 mM MgCl2, and 1 mM EDTA) using a polytron for 2x 10 second bursts in the presence of protease inhibitors, followed by centrifugation at 45,000x g for 20 minutes. The final membrane pellet was re-homogenized in storage buffer (50 mM Tris-HCl, 1 mM MgCl2, and 1 mM EDTA and 10% sucrose) and frozen at -78 C. until used. Saturation binding reactions were initiated by the addition of membrane preparation (protein concentration of 20 ug/well for rat CB2) into wells of a deep well plate containing [3H]CP 55,940 (120 Ci/mmol, a nonselective CB agonist commercially available from Tocris) in assay buffer (50 mM Tris, 2.5 mM EDTA, 5 mM MgCl2, and 0.5 mg/mL fatty acid free BSA, pH 7.4). After 45 min incubation at 30u C., binding reaction was terminated by the addition of 300 ul/well of cold assay buffer. Type of experiment: cell membranes.

Experiment [2] addresses Cannabinoid receptor 2 (Homo sapiens, UniProt P34972). Nature of the experiment: Radioligand Binding Assay: HEK293 cells stably expressing human CB2 receptors were grown until a confluent monolayer was formed. Briefly, the cells were harvested and homogenized in TE buffer (50 mM Tris-HCl, 1 mM MgCl2, and 1 mM EDTA) using a polytron for 2x 10 second bursts in the presence of protease inhibitors, followed by centrifugation at 45,000xg for 20 minutes. The final membrane pellet was re-homogenized in storage buffer (50 mM Tris-HCl, 1 mM MgCl2, and 1 mM EDTA and 10% sucrose) and frozen at -78 C. until used. Saturation binding reactions were initiated by the addition of membrane preparation (protein concentration of 5 ug/well for human CB2) into wells of a deep well plate containing [3H]CP 55,940 (120 Ci/mmol, a nonselective CB agonist commercially available from Tocris) in assay buffer (50 mM Tris, 2.5 mM EDTA, 5 mM MgCl2, and 0.5 mg/mL fatty acid free BSA, pH 7.4). After 90 min incubation at 30 C., binding reaction was terminated by the addition of 300 uL/well of cold assay buffer. It counts as cell membranes.

Chain of Cannabinoid receptor 2 (Homo sapiens, UniProt P34972) (P34972 whole entry): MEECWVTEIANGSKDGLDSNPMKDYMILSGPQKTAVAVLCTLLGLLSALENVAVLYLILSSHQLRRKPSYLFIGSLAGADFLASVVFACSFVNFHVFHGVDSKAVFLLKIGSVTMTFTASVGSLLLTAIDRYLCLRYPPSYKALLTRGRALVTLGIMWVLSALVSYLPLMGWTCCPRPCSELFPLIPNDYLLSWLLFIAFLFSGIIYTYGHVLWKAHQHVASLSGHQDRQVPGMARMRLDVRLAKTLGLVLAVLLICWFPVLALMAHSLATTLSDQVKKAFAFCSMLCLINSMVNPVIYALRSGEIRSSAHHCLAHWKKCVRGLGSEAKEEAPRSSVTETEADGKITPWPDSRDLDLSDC

In general, Ki refers to the equilibrium dissociation constant of an inhibitor or competing ligand from its target. `CCCCn1nc(C(C)(C)C)s/c1=N\C(=O)c1cc(C(F)(F)F)ccc1ON=C(C)C`: the Ki stood at 5.2 nM in experiment [1] and 12 nM in experiment [2].

These data come from ChEMBL document CHEMBL3639359, “Compounds as cannabinoid receptor ligands” (2014).
